From PMC9019904, “AD Informer Set: Chemical tools to facilitate Alzheimer's disease drug discovery” (Alzheimer's & Dementia : Translational Research & Clinical …, 2022)

Experiments:
[1] = tested on: BV2 (mouse microglia) cell line; assay: pHrodo-myelin phagocytosis/cell viability high content imaging assay: phagocytosis signal; format: cell-based
In short: (§1)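 Mouse BV2 and human HMC3 microglia given pHrodo-myelin; phagocytosis and cell viability imaged together by high content imaging about 22 hours after myelin addition. Three measurements extracted, including intensity increase and decrease marking early and later apoptosis.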

[2] = tested on: HMC3 (human microglia) cell line; assay: as above; format: cell-based
In short: as §1

[3] = tested on: BV2 (mouse microglia) cell line; assay: pHrodo-myelin phagocytosis/cell viability high content imaging assay: viability (cell count, nuclear area, nuclear intensity); details: 48 hours treatment
In short: (§2)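 BV2 mouse and HMC3 human microglia were treated with compounds at 10 μM for 48 h, with pHrodo-myelin present for the last 20 h. Viability was imaged as total cell count per well and mean nuclear intensity per cell. Values are means of duplicates, normalized to untreated wells as % control.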

[4] = tested on: HMC3 (human microglia) cell line; assay: as above; details: 48 hours treatment
In short: as §2

[5] = BV2 cells, 10 uM compound, 48 hours treatment, pHrodo-myelin final 20 hours
[6] = HMC3 cells, 10 uM compound, 48 hours treatment, pHrodo-myelin final 20 hours
[7] = BV2, compound 10 uM, pHrodo-myelin
[8] = HMC3, compound 10 uM, pHrodo-myelin

| SMILES | 4. Phagocytosis (% control) [1, 5] | 4. Phagocytosis (% control) [2, 6] | 1. Cell count (% control) ([3]; BV2 cells, 10 uM compound) | 2. Nuclear Area (% Control) ([3]; BV2 cells, 10 uM compound) | 3. Nuclear DNA Intensity (% control) ([3]; BV2 cells, 10 uM compound) | 1. Cell count (% control) ([4]; HMC3 cells, 10 uM compound) | 2. Nuclear Area (% Control) ([4]; HMC3 cells, 10 uM compound) | 3. Nuclear DNA Intensity (% control) ([4]; HMC3 cells, 10 uM compound) | 4. Phagocytosis (% control) [1, 7] | 4. Phagocytosis (% control) [2, 8] | 1. Cell count (% control) ([3]; BV2, compound 10 uM) | 2. Nuclear Area (% Control) ([3]; BV2, compound 10 uM) | 3. Nuclear DNA Intensity (% control) ([3]; BV2, compound 10 uM) | 2. Nuclear Area (% Control) ([4]; HMC3, compound 10 uM) | 3. Nuclear DNA Intensity (% control) ([4]; HMC3, compound 10 uM) | 1. Cell count (% control) ([4]; HMC3, compound 10 uM) |
| --- | --- | --- | --- | --- | --- | --- | --- | --- | --- | --- | --- | --- | --- | --- | --- | --- |
| CCCCc1nc(Cl)c(CO)n1Cc1ccc(-c2ccccc2-c2nn[nH]n2)cc1 [UNC10121212D] | 120.9 % control | 86.3 % control | 142.4 % control | 103.1 % Control | 105.8 % control | 117.8 % control | 104.2 % Control | 96.6 % control | – | – | – | – | – | – | – | – |
| CC/C(=C(\c1ccccc1)c1ccc(OCCN(C)C)cc1)c1ccccc1 [UNC10101258B] | – | – | – | – | – | – | – | – | 320.1 % control | 72.6 % control | 72.9 % control | 98.7 % Control | 95.7 % control | 95.6 % Control | 91.8 % control | – |
| C[C@]12C=CC(=O)C=C1CC[C@@H]1[C@@H]2[C@@H](O)C[C@@]2(C)[C@H]1CC[C@]2(O)C(=O)CO [UNC10240227A] | 126.6 % control | 79.4 % control | 107.8 % control | 102.9 % Control | 105.7 % control | 161.9 % control | 102.8 % Control | 82.5 % control | – | – | – | – | – | – | – | – |
| CN(C)C/C=C/C(=O)Nc1cc2c(Nc3ccc(F)c(Cl)c3)ncnc2cc1O[C@H]1CCOC1 [UNC10302894A] | 41.4 % control | 43.8 % control | – | 107.0 % Control | 89.4 % control | 95.3 % control | 52.1 % Control | 246.1 % control | – | – | – | – | – | – | – | – |
| CN(C)CC[C@H](CSc1ccccc1)Nc1ccc(S(=O)(=O)NC(=O)c2ccc(N3CCN(Cc4ccccc4-c4ccc(Cl)cc4)CC3)cc2)cc1[N+](=O)[O-] [UNC10302898A] | 104.5 % control | 82.2 % control | 128.7 % control | 97.8 % Control | 106.0 % control | 148.0 % control | 98.3 % Control | 97.1 % control | – | – | – | – | – | – | – | – |
| C=CC(=O)Nc1cc2c(Nc3ccc(F)c(Cl)c3)ncnc2cc1OCCCN1CCOCC1.Cl.Cl [UNC10126563B] | 4.1 % control | 0.263 % control | 25.9 % control | 92.7 % Control | 52.1 % control | 45.6 % control | 65.0 % Control | 201.5 % control | – | – | – | – | – | – | – | – |
| COc1nc(OCc2cccc(-c3ccccc3)c2C)ccc1CNCCNC(C)=O.Cl [UNC10302832A] | 0.00132 % control | 0.4 % control | 21.6 % control | 92.8 % Control | 35.4 % control | 35.9 % control | 69.0 % Control | 171.8 % control | – | – | – | – | – | – | – | – |
| NC(=O)[C@@H]1CC[C@H](c2ccc(OCc3ccccc3F)cc2)N1 [UNC10303186A] | – | – | – | – | – | – | – | – | 194.5 % control | 105.3 % control | 138.2 % control | 103.3 % Control | 100.1 % control | 102.6 % Control | 95.0 % control | 128.0 % control |
| CCOC(=O)c1sc(NC(=O)c2ccco2)c(SC#N)c1C [UNC10302907A] | 201.8 % control | 29.4 % control | 60.9 % control | 107.8 % Control | 107.1 % control | 96.1 % control | 63.3 % Control | 173.6 % control | – | – | – | – | – | – | – | – |
| CC[C@H](Nc1ncnc2[nH]cnc12)c1nc2cccc(F)c2c(=O)n1-c1ccccc1 [Idelalisib] | – | – | – | – | – | – | – | – | 107.9 % control | 5.6 % control | 17.2 % control | 138.0 % Control | 108.4 % control | 105.8 % Control | 124.0 % control | 61.4 % control |
| C=CC[N+]1(C2CC3C4CCC5CC(O)C(N6CCOCC6)CC5(C)C4CCC3(C)C2OC(C)=O)CCCC1.[Br-] (stereo not drawn) [UNC10302696A] | – | – | – | – | – | – | – | – | 148.6 % control | 62.6 % control | 144.5 % control | 102.9 % Control | 102.4 % control | 103.7 % Control | 86.9 % control | 145.5 % control |
| O=C(Nc1ccc2[nH]nc(-c3ccncc3)c2c1)[C@@H]1CCN(CC(=O)N2CCN(c3ccc(-c4ncccn4)cc3)CC2)C1 [UNC10302854A] | 359.5 % control | 37.1 % control | 43.5 % control | 114.7 % Control | 111.9 % control | 103.4 % control | 110.6 % Control | 94.1 % control | – | – | – | – | – | – | – | – |
| Cc1ccc(S(=O)(=O)O)cc1.Nc1n[nH]cc1-c1cc(Cl)ccc1Oc1cc(F)c(S(=O)(=O)Nc2cscn2)cc1Cl [UNC10303160A] | – | – | – | – | – | – | – | – | 124.9 % control | 74.7 % control | 121.5 % control | 103.1 % Control | 99.3 % control | 95.0 % Control | 100.7 % control | 135.7 % control |
| CCOC(=O)N1c2ccc(C(F)(F)F)cc2[C@@H](N(Cc2cc(C(F)(F)F)cc(C(F)(F)F)c2)C(=O)OC)C[C@H]1CC [UNC10302851A] | 135.7 % control | 85.4 % control | 124.9 % control | 104.2 % Control | 100.1 % control | 125.3 % control | 99.8 % Control | 94.2 % control | – | – | – | – | – | – | – | – |
| Cl.NCCOCCOCCNC(=O)Cc1ccc(Nc2nc(NCc3ccc(F)cc3)nc(NCC3CCCCC3)n2)cc1 [UNC10302950A] | 232.8 % control | 36.3 % control | 46.4 % control | 117.0 % Control | 104.0 % control | 97.2 % control | 95.7 % Control | 118.1 % control | – | – | – | – | – | – | – | – |
| COc1ccc(CCN2CCN(CCCc3ccccc3)CC2)cc1OC.Cl.Cl [UNC10302848A] | 120.8 % control | 82.7 % control | 91.1 % control | 105.5 % Control | 98.2 % control | 84.9 % control | 99.2 % Control | 95.9 % control | – | – | – | – | – | – | – | – |
| CN1C[C@H](Nc2cnn(C)c(=O)c2Br)C[C@H](c2ccccc2)C1 [UNC10303157A] | – | – | – | – | – | – | – | – | 145.8 % control | 103.4 % control | 85.0 % control | 105.0 % Control | 100.7 % control | 97.5 % Control | 100.9 % control | 86.8 % control |
| O=C(O)c1cc2nc(-c3ccc(Cl)cc3)cc(C(F)(F)F)n2n1 [UNC10302881A] | 163.1 % control | 94.6 % control | 116.3 % control | 105.9 % Control | 97.1 % control | 123.0 % control | 99.8 % Control | 93.1 % control | – | – | – | – | – | – | – | – |
| O=C(CCl)c1ccccc1Nc1cccc(C(F)(F)F)c1 [UNC10302842A] | – | – | – | – | – | – | – | – | 183.6 % control | 56.6 % control | 92.3 % control | 108.5 % Control | 96.7 % control | 81.7 % Control | 149.6 % control | 87.6 % control |
